Assay results taken from ChEMBL document CHEMBL4041532, “Zinc-Metalloproteinase Inhibitors: Evaluation of the Complex Role Played by the Zinc-Binding Group on Potency and Selectivity” (J Med Chem, 2017).
Active and inactive are the calls of the source. The rule behind the calls is not given here.

How the values were obtained:
Collagenase 3 = Collagenase 3 (Homo sapiens, UniProt P45452); assay: Inhibition of human MMP13 catalytic domain using Mca-Pro-Leu-Gly-Leu-Dpa-Ala-Arg-NH2 fluorogenic substrate by spectrophotometric analysis
Stromelysin-2 = Stromelysin-2 (Homo sapiens, UniProt P09238); assay: Inhibition of human MMP10 catalytic domain using Mca-Pro-Leu-Gly-Leu-Dpa-Ala-Arg-NH2 fluorogenic substrate by spectrophotometric analysis
Stromelysin-2, sequence (P09238 whole entry, the tested form may be a part): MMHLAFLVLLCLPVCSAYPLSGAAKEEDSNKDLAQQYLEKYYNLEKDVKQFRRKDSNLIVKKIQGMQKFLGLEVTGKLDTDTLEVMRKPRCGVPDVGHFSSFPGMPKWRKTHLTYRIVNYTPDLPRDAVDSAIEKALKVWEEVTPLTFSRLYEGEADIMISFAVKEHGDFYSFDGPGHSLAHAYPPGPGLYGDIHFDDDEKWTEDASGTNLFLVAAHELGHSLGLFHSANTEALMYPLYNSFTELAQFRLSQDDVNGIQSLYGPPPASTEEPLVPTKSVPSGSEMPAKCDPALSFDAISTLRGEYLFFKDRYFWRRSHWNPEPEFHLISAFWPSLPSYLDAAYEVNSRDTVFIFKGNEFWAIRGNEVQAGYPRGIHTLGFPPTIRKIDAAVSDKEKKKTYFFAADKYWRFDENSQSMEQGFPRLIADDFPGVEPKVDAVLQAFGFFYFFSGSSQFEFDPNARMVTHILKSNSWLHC

[1] = molecular target: Macrophage metalloelastase (Homo sapiens) (UniProt P39900); assay: Ratio of Ki for human MMP12 catalytic domain (Met105 to Lys263 residues) at pH 9.5 to Ki for human MMP12 catalytic domain (Met105 to Lys263 residues) at pH 6
Macrophage metalloelastase (Homo sapiens), sequence (P39900 106-470 limits assumed): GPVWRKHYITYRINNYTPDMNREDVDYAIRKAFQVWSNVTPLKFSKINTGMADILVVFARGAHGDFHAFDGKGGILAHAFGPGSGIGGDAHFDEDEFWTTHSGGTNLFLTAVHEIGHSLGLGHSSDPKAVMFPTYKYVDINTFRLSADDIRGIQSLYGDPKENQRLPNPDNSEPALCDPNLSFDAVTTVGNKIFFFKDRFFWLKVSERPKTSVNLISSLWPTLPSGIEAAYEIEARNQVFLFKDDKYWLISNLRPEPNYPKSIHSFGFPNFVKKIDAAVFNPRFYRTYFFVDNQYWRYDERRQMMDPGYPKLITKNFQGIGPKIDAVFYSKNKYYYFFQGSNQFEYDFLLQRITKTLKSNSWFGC

[2] = molecular target: 72 kDa type IV collagenase (Homo sapiens) (UniProt P08253); assay: Inhibition of human MMP2 catalytic domain using Mca-Pro-Leu-Gly-Leu-Dpa-Ala-Arg-NH2 fluorogenic substrate by spectrophotometric analysis
72 kDa type IV collagenase (Homo sapiens), sequence (P08253 110-660 limits assumed): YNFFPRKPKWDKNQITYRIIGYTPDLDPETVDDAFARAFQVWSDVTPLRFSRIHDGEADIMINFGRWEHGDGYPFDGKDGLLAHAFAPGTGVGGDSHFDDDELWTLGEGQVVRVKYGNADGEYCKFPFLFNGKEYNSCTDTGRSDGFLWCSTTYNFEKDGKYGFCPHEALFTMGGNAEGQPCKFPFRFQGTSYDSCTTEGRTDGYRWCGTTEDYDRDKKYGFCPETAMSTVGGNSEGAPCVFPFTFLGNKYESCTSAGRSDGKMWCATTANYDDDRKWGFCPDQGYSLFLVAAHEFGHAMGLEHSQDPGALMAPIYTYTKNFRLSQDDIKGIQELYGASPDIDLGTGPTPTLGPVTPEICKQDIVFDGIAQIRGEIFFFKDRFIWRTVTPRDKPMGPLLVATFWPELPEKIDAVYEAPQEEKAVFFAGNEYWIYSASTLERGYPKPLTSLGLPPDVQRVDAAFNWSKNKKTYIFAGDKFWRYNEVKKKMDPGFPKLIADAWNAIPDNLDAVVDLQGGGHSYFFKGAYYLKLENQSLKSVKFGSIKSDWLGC

SMILES	Ki (Collagenase 3) [nM]	Ki (Stromelysin-2) [nM]	Ratio Ki [1]	Activity (Collagenase 3)	Activity [2]
NC(=O)[C@H](CCC(=O)O)NC(=O)[C@H](CCC(=O)O)NC(=O)[C@H](Cc1cc(-c2ccc(-c3cccc(Cl)c3)cc2)no1)CP(=O)(O)c1ccc(Br)cc1	139	149	1100	–	–
NC(=O)[C@H](CCC(=O)O)NC(=O)[C@H](CCC(=O)O)NC(=O)[C@@H](CC(=O)NO)Cc1cc(-c2ccc(-c3cccc(Cl)c3)cc2)no1	0.008	1.4	–	–	–
NC(=O)[C@H](CCC(=O)O)NC(=O)[C@H](CCC(=O)O)NC(=O)[C@@H](CC(=O)O)Cc1cc(-c2ccc(-c3cccc(Cl)c3)cc2)no1	–	–	980	Active	Active
